Results on one compound are retold here after US7985761B2, “Diphenylurea derivatives and their use as chloride channel blockers or BKCa channel modulators” (Neurosearch A/S, priority 2006, dated 2011).

Format in all cases: cell-based
The target of experiment [1] is T1, Volume Regulated Anion Channel (VRAC) (Homo sapiens, UniProt Q8IWT6).
T1 construct: endogenous in cells; host or cells: HEK293
T1 sequence (Q8IWT6 1-810): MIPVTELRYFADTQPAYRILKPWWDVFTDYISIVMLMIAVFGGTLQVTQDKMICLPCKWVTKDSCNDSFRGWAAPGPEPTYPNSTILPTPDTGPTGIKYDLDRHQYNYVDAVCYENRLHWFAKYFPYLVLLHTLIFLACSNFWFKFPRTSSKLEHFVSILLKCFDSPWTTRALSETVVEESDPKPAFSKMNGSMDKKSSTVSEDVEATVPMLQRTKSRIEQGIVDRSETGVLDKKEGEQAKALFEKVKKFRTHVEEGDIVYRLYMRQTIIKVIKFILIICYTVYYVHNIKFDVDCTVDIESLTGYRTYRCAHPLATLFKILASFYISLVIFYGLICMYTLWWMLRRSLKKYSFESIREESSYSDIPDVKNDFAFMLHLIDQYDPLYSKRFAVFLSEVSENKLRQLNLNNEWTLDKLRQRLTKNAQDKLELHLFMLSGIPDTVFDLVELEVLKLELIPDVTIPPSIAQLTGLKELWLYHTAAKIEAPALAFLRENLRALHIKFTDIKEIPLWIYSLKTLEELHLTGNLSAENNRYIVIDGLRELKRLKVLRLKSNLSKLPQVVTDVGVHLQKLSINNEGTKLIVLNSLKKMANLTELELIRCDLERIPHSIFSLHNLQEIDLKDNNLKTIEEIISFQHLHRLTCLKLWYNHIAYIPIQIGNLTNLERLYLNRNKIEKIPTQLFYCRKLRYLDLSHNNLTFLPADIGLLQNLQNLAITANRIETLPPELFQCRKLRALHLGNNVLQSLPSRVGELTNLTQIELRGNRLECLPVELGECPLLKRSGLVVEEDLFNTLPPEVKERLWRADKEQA
The experiment in a line: Volume Regulated Anion Channel (VRAC) effect, whole cell patch clamp in HEK293 cells. The note with it: VRAC activated by swelling in hypotonic (75% tonicity) extracellular solution, read-out: KD value (time dependent block of VRAC current). On the procedure: Volume Regulated Anion Channel (VRAC) Effect
The activity on the Volume Regulated Anion Channel (VRAC) was tested by the whole cell patch clamp technique using Human Embryonic Kidney cells (HEK293) as described in Helix et al, J Membr Biol. 2003 196(2):83-94, In short, VRAC was activated by swelling of the cell in hypotonic (75% tonicity) extracellular salt solution and the anion current elicited by voltage ramps was measured vs. time. After stabilization of the current the compound to be tested was added to the extracellular solution and the time dependent block was followed for calculation of the KD value.

Experiment [2] has as its system human erythrocyte chloride channels. The experiment in a line: In vitro human erythrocyte chloride conductance. The note with it: read-out: IC50 value - the concentration at which 50% of the chloride channels are blocked. On the procedure:
In Vitro Human Erythrocyte Chloride Conductance
The chloride conductance was measured according to the proceeding as described in the “Biology” paragraph of the specification of WO 00/24707. The parameter calculated from these studies is the IC50 value—the concentration at which 50% of the chloride channels are blocked.

The target in experiment [3] is T2, human BK channels (Homo sapiens, UniProt Q12791).
T2 construct: expressed in transfected cells; host or cells: Xenopus oocytes
T2 sequence (Q12791 whole entry): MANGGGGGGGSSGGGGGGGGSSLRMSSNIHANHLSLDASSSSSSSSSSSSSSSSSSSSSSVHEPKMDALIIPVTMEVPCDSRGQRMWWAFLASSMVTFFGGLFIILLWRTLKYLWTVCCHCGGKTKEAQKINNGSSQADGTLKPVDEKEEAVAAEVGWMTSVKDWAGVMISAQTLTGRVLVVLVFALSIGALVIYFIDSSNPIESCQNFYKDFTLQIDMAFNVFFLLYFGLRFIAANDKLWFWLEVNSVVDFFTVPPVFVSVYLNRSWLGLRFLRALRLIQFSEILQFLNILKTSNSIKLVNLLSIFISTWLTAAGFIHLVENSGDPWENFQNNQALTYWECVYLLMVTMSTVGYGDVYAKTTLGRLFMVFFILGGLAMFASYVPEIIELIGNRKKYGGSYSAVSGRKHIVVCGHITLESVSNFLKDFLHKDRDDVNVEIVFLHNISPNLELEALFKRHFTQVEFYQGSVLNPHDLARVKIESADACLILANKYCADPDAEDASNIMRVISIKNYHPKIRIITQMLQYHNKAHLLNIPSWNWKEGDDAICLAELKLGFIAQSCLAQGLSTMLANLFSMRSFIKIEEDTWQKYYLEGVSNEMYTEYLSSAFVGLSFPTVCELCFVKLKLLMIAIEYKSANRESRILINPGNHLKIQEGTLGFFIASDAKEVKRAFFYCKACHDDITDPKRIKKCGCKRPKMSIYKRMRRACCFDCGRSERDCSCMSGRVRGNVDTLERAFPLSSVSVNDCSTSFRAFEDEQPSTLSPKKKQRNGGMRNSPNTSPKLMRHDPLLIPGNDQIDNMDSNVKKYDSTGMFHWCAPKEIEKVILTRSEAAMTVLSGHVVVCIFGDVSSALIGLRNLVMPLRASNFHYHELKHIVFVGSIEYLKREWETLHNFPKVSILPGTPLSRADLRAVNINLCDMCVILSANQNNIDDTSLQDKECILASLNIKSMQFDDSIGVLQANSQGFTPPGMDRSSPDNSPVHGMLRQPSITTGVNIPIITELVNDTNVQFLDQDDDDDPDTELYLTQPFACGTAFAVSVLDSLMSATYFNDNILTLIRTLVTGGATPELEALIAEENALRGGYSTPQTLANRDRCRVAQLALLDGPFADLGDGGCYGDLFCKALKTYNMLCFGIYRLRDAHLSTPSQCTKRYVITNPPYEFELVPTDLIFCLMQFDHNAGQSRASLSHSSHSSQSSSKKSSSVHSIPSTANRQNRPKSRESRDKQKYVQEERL
Put plainly: Human BK channel screening, two-electrode voltage clamp in Xenopus oocytes. The note with it: 0.3 μM test compound, Xenopus oocytes expressing human BK channels. On the procedure: Human BK Channel Screening
The influence of a compound on the membrane currents was determined electrophysiologically on Xenopus Oocytes capable of expressing human BK channels, and the current through the channels was recorded using the classical two-electrode voltage clamp technique.
The first compound of Example 4, N-(3,5-Difluoro-phenyl)-N′-[3-(5-oxo-4,5-dihydro-[1,2,4]oxadiazol-3-yl)-4′-trifluoromethyl-biphenyl-4-yl]urea, was subjected to this determination at a concentrations of 0.3 μM of test compound, and it caused an increase of BK current relative to the basal current of more than 200%.

Each structure is given as a SMILES string.

The term Kd denotes a measure of binding affinity in units of concentration. In the case of `O=C(Nc1cc(F)cc(F)c1)Nc1ccc(-c2ccc(C(F)(F)F)cc2)cc1-c1noc(=O)[nH]1` [first compound of Example 4, N-(3,5-Difluoro-phenyl)-N′-[3-(5-oxo-4,5-dihydro-[1,2,4]oxadiazol-3-yl)-4′-trifluoromethyl-biphenyl-4-yl]urea], the dissociation constant Kd in experiment [1] came out at 230 nM. Also, in experiment [2], the IC50 is 280 nM. The “increase of BK current relative to the basal current” value in experiment [3] is reported as “more than 200%”.
